Source: ChEMBL document CHEMBL1138490, “Gamma-aminobutyric acid amides of nortriptyline and fluoxetine display improved pain suppressing activity” (2009)
Calls of active or inactive are those of the source. The rule behind the calls is not given here.

Tests used:
Mus musculus [1] = experiment: Anxiolytic activity in BALB/c mouse assessed as velocity at equimolar oral dose relative to 1 mg/kg nortriptyline after 90 mins by open-field test (RVb= 7.07+/-0.51 cm/s); format: functional
Mus musculus [2] = experiment: Antinociceptive activity in BALB/c mouse assessed as paw withdrawal latency at 0.4 mg/kg, po after 2 to 4 hrs by hot plate method; format: functional, organism-based; set-up: dose 0.4 mg/kg
Mus musculus [3] = experiment: Antinociceptive activity in BALB/c mouse assessed as […] at 0.25 mg/kg, po equimolar dose of nortriptyline after 240 mins by hot plate method; format: functional, organism-based; set-up: dose 0.25 mg/kg
Rattus norvegicus [4] = experiment: Antiinflammatory activity against gamma carrageenan-induced paw edema in Wistar rat assessed as reduction in paw volume at 5 mg/kg, po equimolar dose of nortriptyline administered 2 hrs before carrageenan challenge measured after 4 hrs relative to control; format: functional, organism-based; set-up: dose 5 mg/kg
Mus musculus [5] = experiment: Antinociceptive activity against formalin-induced pain in BALB/c mouse assessed paw licking, biting or shaking at 0.5 mg/kg, po equimolar dose of nortriptyline administered 2 hrs before formalin challenge measured after 25 to 35 mins relative to control; format: functional, organism-based; set-up: dose 0.5 mg/kg
Rattus norvegicus [6] = experiment: Antiinflammatory activity against gamma carrageenan-induced paw edema in Wistar rat assessed as reduction in paw volume at 5 mg/kg, po administered 2 hrs before carrageenan challenge measured after 4 hrs relative to control; format: functional, organism-based; set-up: dose 5 mg/kg
Rattus norvegicus [7] = experiment: Antiinflammatory activity against gamma carrageenan-induced paw edema in Wistar rat assessed as reduction in paw volume at 5 mg/kg, po administered 2 hrs before carrageenan challenge measured after 24 hrs relative to control; format: functional, organism-based; set-up: dose 5 mg/kg
Mus musculus [8] = experiment: Anxiolytic activity in BALB/c mouse assessed as velocity at equimolar oral dose relative to 5 mg/kg nortriptyline after 90 mins by open-field test (RVb= 7.07+/-0.51 cm/s); format: functional
Mus musculus [9] = experiment: Antinociceptive activity in BALB/c mouse assessed as decrease in inhibition of paw withdrawal latency at 0.1 mg/kg, po after by hot plate method; format: functional, organism-based; set-up: dose 0.1 mg/kg
Mus musculus [10] = experiment: Antinociceptive activity in BALB/c mouse assessed as […] at 4.5 mg/kg, po after 240 mins by hot plate method; format: functional, organism-based; set-up: dose 4.5 mg/kg
Mus musculus [11] = experiment: Antinociceptive activity in BALB/c mouse assessed as […] at 4.5 mg/kg, po equimolar dose of nortriptyline after 240 mins by hot plate method; format: functional, organism-based; set-up: dose 4.5 mg/kg
Mus musculus [12] = experiment: Antinociceptive activity in BALB/c mouse assessed as increase in paw withdrawal latency time at 0.2 mg/kg, po equimolar dose of nortriptyline daily measured after 3 to 5 hrs on day 1; format: functional, organism-based; set-up: dose 0.2 mg/kg
Mus musculus [13] = experiment: Antinociceptive activity in BALB/c mouse assessed as […] at 10 mg/kg, po after 240 mins by hot plate method; format: functional, organism-based; set-up: dose 10 mg/kg
Mus musculus [14] = experiment: Anxiolytic activity in BALB/c mouse assessed as distance moved at equimolar oral dose relative to 1 mg/kg nortriptyline after 90 mins by open-field test (RVb= 8485+/-610 cm); format: functional
Mus musculus [15] = experiment: Anxiolytic activity in BALB/c mouse assessed as immobility at equimolar oral dose relative to 5 mg/kg nortriptyline after 90 mins by open-field test (RVb= 458.4+/-41 s); format: functional
Rattus norvegicus [16] = experiment: Antiinflammatory activity against gamma carrageenan-induced paw edema in Wistar rat assessed as paw volume at 5 mg/kg, po equimolar dose of nortriptyline administered 2 hrs before carrageenan challenge relative to control; format: functional, organism-based; set-up: dose 5 mg/kg
Mus musculus [17] = experiment: Antiinflammatory activity against formalin-induced BALB/c mouse skin assessed as reduction in TNFalpha level at to 0.5 mg/kg, po; format: functional, organism-based; set-up: dose 0.5 mg/kg
Mus musculus [18] = experiment: Antinociceptive activity in BALB/c mouse assessed as […] at 0.5 mg/kg, po equimolar dose of nortriptyline after 240 mins by hot plate method; format: functional, organism-based; set-up: dose 0.5 mg/kg
Mus musculus [19] = experiment: Anxiolytic activity in BALB/c mouse assessed as velocity at equimolar oral dose relative to 15 mg/kg nortriptyline after 90 mins by open-field test (RVb= 7.07+/-0.51 cm/s); format: functional
Mus musculus [20] = experiment: Antinociceptive activity in BALB/c mouse assessed as paw withdrawal latency at 0.4 mg/kg, po equimolar dose of nortriptyline after 2 to 4 hrs by hot plate method; format: functional, organism-based; set-up: dose 0.4 mg/kg
Mus musculus [21] = experiment: Anxiolytic activity in BALB/c mouse assessed as immobility at equimolar oral dose relative to 1 mg/kg nortriptyline after 90 mins by open-field test (RVb= 458.4+/-41 s); format: functional
Mus musculus [22] = experiment: Anxiolytic activity in BALB/c mouse assessed as distance moved at equimolar oral dose relative to 5 mg/kg nortriptyline after 90 mins by open-field test (RVb= 8485+/-610 cm); format: functional
Mus musculus [23] = experiment: Antinociceptive activity in BALB/c mouse assessed as increase in paw withdrawal latency time at 0.2 mg/kg, po daily for 12 days measured after 3 to 5 hrs on day 1; format: functional, organism-based; set-up: dose 0.2 mg/kg
Rattus norvegicus [24] = experiment: Antiinflammatory activity against gamma carrageenan-induced paw edema in Wistar rat assessed as reduction in paw volume at 5 mg/kg, po equimolar dose of nortriptyline administered 2 hrs before carrageenan challenge measured after 24 hrs relative; format: functional, organism-based; set-up: dose 5 mg/kg
Mus musculus [25] = experiment: Antinociceptive activity in BALB/c mouse assessed as increase in paw withdrawal latency time at 0.2 mg/kg, po equimolar dose of nortriptyline daily measured after 3 to 5 hrs on day 3 to 12; format: functional, organism-based; set-up: dose 0.2 mg/kg
Mus musculus [26] = experiment: Anxiolytic activity in BALB/c mouse assessed as immobility at equimolar oral dose relative to 15 mg/kg nortriptyline after 90 mins by open-field test (RVb= 458.4+/-41 s); format: functional
Mus musculus [27] = experiment: Antinociceptive activity in BALB/c mouse assessed as decrease in inhibition of paw withdrawal latency at 2.39 mg/kg, po after by hot plate method; format: functional, organism-based; set-up: dose 2.39 mg/kg
Mus musculus [28] = experiment: Antinociceptive activity against formalin-induced pain in BALB/c mouse assessed paw licking, biting or shaking at 0.5 mg/kg, po equimolar dose of nortriptyline administered 2 hrs before formalin challenge measured after 0 to 5 mins relative to control; format: functional, organism-based; set-up: dose 0.5 mg/kg
Mus musculus [29] = experiment: Antinociceptive activity against formalin-induced pain in BALB/c mouse assessed paw licking, biting or shaking at 5 mg/kg, po equimolar dose of nortriptyline administered 2 hrs before formalin challenge measured after 25 to 35 mins relative to control; format: functional, organism-based; set-up: dose 5 mg/kg
Mus musculus [30] = experiment: Antinociceptive activity against formalin-induced pain in BALB/c mouse assessed paw licking, biting or shaking at 0.5 mg/kg, po administered 2 hrs before formalin challenge measured after 25 to 35 mins relative to control; format: functional, organism-based; set-up: dose 0.5 mg/kg
Mus musculus [31] = experiment: Antinociceptive activity in BALB/c mouse assessed as […] at 0.25 mg/kg, po after 240 mins by hot plate method; format: functional, organism-based; set-up: dose 0.25 mg/kg
Mus musculus [32] = experiment: Antinociceptive activity against formalin-induced pain in BALB/c mouse assessed paw licking, biting or shaking at 5 mg/kg, po administered 2 hrs before formalin challenge measured after 25 to 35 mins relative to control; format: functional, organism-based; set-up: dose 5 mg/kg
Rattus norvegicus [33] = species: Rattus norvegicus; experiment: Displacement of [3H]GABA from non selective GABA receptor in rat cerebral cortex; format: tissue-based; settings: concentration not given here
Rattus norvegicus [34] = species: Rattus norvegicus; experiment: Displacement of [3H]muscimol from GABAA receptor in rat cerebral cortex; format: tissue-based; settings: concentration not given here
Mus musculus [35] = experiment: Antinociceptive activity against formalin-induced pain in BALB/c mouse assessed paw licking, biting or shaking at 5 mg/kg, po equimolar dose of nortriptyline administered 2 hrs before formalin challenge measured after 0 to 5 mins relative to control; format: functional, organism-based; set-up: dose 5 mg/kg
Mus musculus [36] = experiment: Antinociceptive activity in BALB/c mouse assessed as increase in paw withdrawal latency time at 0.2 mg/kg, po equimolar dose of nortriptyline daily measured after 3 to 5 hrs on day 10 to 12; format: functional, organism-based; set-up: dose 0.2 mg/kg
Mus musculus [37] = experiment: Anxiolytic activity in BALB/c mouse assessed as distance moved at equimolar oral dose relative to 15 mg/kg nortriptyline after 90 mins by open-field test (RVb= 8485+/-610 cm); format: functional
Mus musculus [38] = experiment: Antinociceptive activity against formalin-induced pain in BALB/c mouse assessed paw licking, biting or shaking at 5 mg/kg, po administered 2 hrs before formalin challenge measured after 0 to 5 mins relative to control; format: functional, organism-based; set-up: dose 5 mg/kg
Mus musculus [39] = experiment: Antinociceptive activity against formalin-induced pain in BALB/c mouse assessed paw licking, biting or shaking at 0.5 mg/kg, po administered 2 hrs before formalin challenge measured after 0 to 5 mins relative to control; format: functional, organism-based; set-up: dose 0.5 mg/kg

CN(CCC=C1c2ccccc2CCc2ccccc21)C(=O)CCCN.Cl [BL-1021]
Activity (Mus musculus [1]): 6.72 cm/s
Activity (Mus musculus [2]): Active
Activity (Mus musculus [3]): Active
Activity (Rattus norvegicus [4]): inactive
Activity (Mus musculus [5]): Active
Activity (Rattus norvegicus [6]): inactive
Activity (Rattus norvegicus [7]): inactive
Activity (Mus musculus [8]): 6.85 cm/s
Activity (Mus musculus [9]): Active
Activity (Mus musculus [10]): Active
Activity (Mus musculus [11]): Active
Activity (Mus musculus [12]): Active
Activity (Mus musculus [13]): Active
Activity (Mus musculus [14]): 8053 cm
Activity (Mus musculus [15]): 467.9 s
Activity (Rattus norvegicus [16]): Active
Activity (Mus musculus [17]): Active
Activity (Mus musculus [18]): Active
Activity (Mus musculus [19]): 6.18 cm/s
Activity (Mus musculus [20]): Active
Activity (Mus musculus [21]): 447.2 s
Activity (Mus musculus [22]): 8157 cm
Activity (Mus musculus [23]): Active
Activity (Rattus norvegicus [24]): inactive
Activity (Mus musculus [25]): Active
Activity (Mus musculus [26]): 572.8 s
Activity (Mus musculus [27]): Active
Activity (Mus musculus [28]): Active
Activity (Mus musculus [29]): Active
Activity (Mus musculus [30]): Active
Activity (Mus musculus [31]): Active
Activity (Mus musculus [32]): Active
inhibition (Rattus norvegicus [33]): 6%
inhibition (Rattus norvegicus [34]): 11%
Activity (Mus musculus [35]): Active
Activity (Mus musculus [36]): Active
Activity (Mus musculus [37]): 7413 cm
Activity (Mus musculus [38]): Active
Activity (Mus musculus [39]): Active

CNCCC=C1c2ccccc2CCc2ccccc21
Activity (Mus musculus [3]): Active
Activity (Mus musculus [5]): Active
Activity (Mus musculus [10]): Active
Activity (Mus musculus [11]): Active
Activity (Rattus norvegicus [16]): Active
Activity (Mus musculus [17]): Active
Activity (Mus musculus [18]): Active
Activity (Mus musculus [28]): Active
Activity (Mus musculus [29]): Active
Activity (Mus musculus [30]): Active
Activity (Mus musculus [31]): Active
Activity (Mus musculus [32]): Active
Activity (Mus musculus [35]): Active
Activity (Mus musculus [38]): Active
Activity (Mus musculus [39]): Active

CNCCC(Oc1ccc(C(F)(F)F)cc1)c1ccccc1 (stereo not given)
Activity (Mus musculus [13]): Active
